Assays:
[1] = in vivo; cited from earlier work
[2] = test system: NADPH; experiment: Pyridine dinucleotide quantitation, NADPH in brain regions; format: in vivo, mouse (male C57BL/6); conditions: 110 mg/kg ICV, 8 month old mice
Description: NADPH and NADH are stable in base. Fortunately, the cyanide reaction proceeds optimally in base.

[3] = HPLC determination of tBuOOH in mice brains (pharmacokinetic profile); format: in vivo, mouse (male C57BL/6)
Procedure: Male C57BL/6 mice, 8 months old, were treated ICV with 110 mg/kg of tBuOOH. At various times, brains were removed, dissected and frozen on dry ice. Later the brains were homogenized in acetonitrile and centrifuged for 5 minutes at 12,000 g.

[4] = test system: 24 month old mice; conditions: 24 month old mice; 21.9 mg/kg t-BuOOH only
[5] = test system: glutathione peroxidase; conditions: cited from earlier work
[6] = test system: catalase; conditions: cited from earlier work
[7] = test system: NAD; conditions: 110 mg/kg ICV; 8 month old mice
Procedure: Male C57 B 1/6 mice, 8 months old, were treated ICV with tBuOOH (110 mg/kg) and maintained for 2, 5, 20 or 120 minutes. Anesthetized tBuOOH treated mice were immersed in liquid nitrogen to freeze their brains. The frozen brains were removed and dissected over dry ice. The brain regions were homogenized and analyzed by HPLC to determine NAD, NADH, NADP and NADPH levels as described previously. It is very important to stabilize the pyridine dinucleotides to prevent artifactual oxidation. NAD and NADP were stabilized by homogenization of brain regions in a cyanide containing solution. The cyanide reacts with the compounds forming cyano adducts that are stable. NADPH and NADH were stabilized by homogenizing brain regions in basic solution. NADPH and NADH are stable in base. Fortunately, the cyanide reaction proceeds optimally in base. Therefore, use of basic cyanide solutions during the homogenization produced optimal stabilization of NAD, NADP, NADH and NADPH. Following extraction with chloroform, centrifugation at 12,000 g for 5 minutes at 5° C., and filtration through 0.45μ positively charged nylon filters to remove DNA, the supernatants were injected onto a reverse phase HPLC column ("REXCHROME" ODS 5μ, Regis, Morton Grove, Ill.). Fluorescence detection (330 nm, excitation, 460 nm emission) was used to detect fluorescent NADH, NADPH and the cyano adducts of NAD and NADP.

[8] = test system: DNA in brain sections of C57BL/6 mice; experiment: DNA fragmentation in brain regions upon treatment with tBuOOH (Tables 1 and 2); format: in vivo, mouse (C57BL/6); conditions: for Fraction of damaged DNA, Cerebellum / Fraction of damaged DNA, Cortex / Fraction of damaged DNA, Hippo / Fraction of damaged DNA, Midbrain / Fraction of damaged DNA, Striatum / Fraction of damaged DNA, Thalamus: mean ± SD
Procedure: (§1) In general male C57BL/6 mice (2, 8 or 24 months old) were anesthetized with ketamine and xylazine (200 and 2 mg/kg, ip). They were injected ICV with tBuOOH in doses of approximately 22 or 110 mg/kg. This amounts to 1 or 5 μl of a 70% solution of tBuOOH injected slowly into a lateral cerebral ventricle. A mouse brain weighs about 400 mg. […] Animals recovered from anesthesia about 30 minutes or so after tBuOOH administration. […] Low dose mice survived for 48 hours or more.
Young adult (2 month old) and mature (8 month old) C57BL/6 mice were divided into 7 groups with 8 animals in the control group and 4 animals in each of the other groups for both the age groups. A dose of 109.7 mg/kg of tBuOOH was administered ICV, to three groups of mice of both age groups. See Tables 1 and 2. tBuOOH was injected ICV following the technique described in Popick^2. The experiments ended 2 minutes, 5 minutes and 20 minutes after injection of tBuOOH. In the second set of experiments, 21.9 mg/kg of the toxin was administered ICV in the other three groups of mice with experimental durations of 12 hours, 24 hours and 48 hours respectively. The controls were treated with saline rather than tBuOOH.
The brains were removed after the allotted time period and sectioned immediately into the following sections: cortex, striatum, hippocampus, thalamus, midbrain and cerebellum.

[9] = test system: C57BL/6 mice; experiment: Behavior and survival of mice after ICV tBuOOH; format: in vivo, mouse (male C57BL/6)
Procedure: as §1

[10] = test system: apoptotic cells in brain; conditions: 21.9 mg/kg ICV; 48 hours; most abundant in thalamus and pons
Procedure: The purpose of the apoptosis staining was to identify individual cells that may have undergone apoptosis. Residues of digoxigenin nucleotide were added to the DNA by an enzyme terminal deoxynucleotidyl transferase (TdT) which catalyzes the addition of deoxyribonucleotide triphosphate to the 3'-OH end of single and double stranded DNA. Thus the targets for labeling are the numerous new 3'-OH DNA ends generated by DNA fragmentation, easily observable in morphologically identifiable nuclei and apoptotic bodies. The sections were then incubated with an antibody to digoxigenin residues. The antibody was coupled to peroxidase allowing visualization with 3,3'-diaminobenzidine. Other sections were stained with cresyl violet.
A dose of 21.9 mg/kg of tBuOOH was administered ICV to C57BL/6 mice. The mice were anesthetized 48 hours after the tBuOOH administration and perfused through the left cardiac ventricle with 0.175M sodium phosphate and 0.155M sodium chloride (pH 7.5, PBS), then with 4% formaldehyde and 0.2% glutaraldehyde in PBS for six minutes with each solution at room temperature. The brains were then removed from the cranium after 2 hours of fixation and sliced coronally into 50μ sections with a vibrating microtome.
In order to detect individual cells undergoing apoptosis, the In Situ Apoptosis Detection Kit, (Oncor, Gaithersburg, Md.) was used. […]

[11] = test system: DNA; experiment: EPR detection of radicals on mixing DNA and tBuOOH in the presence of DMPO
Description: Therefore, DNA fragmentation is produced following HO. and other radicals induced DNA damage. Necrotic degeneration probably occurs within the first few hours after tBuOOH administration.

[12] = 2 month old mice, 21.9 mg/kg ICV, 12 hours
[13] = 2 month old mice, 21.9 mg/kg ICV, 24 hours
[14] = 2 month old mice, 21.9 mg/kg ICV, 48 hours
[15] = 2 month old mice, 109.7 mg/kg ICV, 2 min
[16] = 2 month old mice, 109.7 mg/kg ICV, 2 min, * p<0.05 vs control
[17] = 2 month old mice, 109.7 mg/kg ICV, 5 min
[18] = 2 month old mice, 109.7 mg/kg ICV, 20 min
[19] = 2 month old mice, 109.7 mg/kg ICV, 20 min, * p<0.05 vs control
[20] = 8 month old mice, 21.9 mg/kg ICV, 12 hours
[21] = 8 month old mice, 21.9 mg/kg ICV, 24 hours
[22] = 8 month old mice, 21.9 mg/kg ICV, 48 hours
[23] = 8 month old mice, 109.7 mg/kg ICV, 2 min
[24] = 8 month old mice, 109.7 mg/kg ICV, 5 min
[25] = 8 month old mice, 109.7 mg/kg ICV, 20 min
[26] = 8 month old mice, 109.7 mg/kg ICV, 20 min, * p<0.05 vs control

SMILES: CC(C)(C)OO [tBuOOH, t-butylhydroperoxide]
- brain permeation [1]: readily permeate throughout the brain
- time for NADPH to return to control values [2]: ≤ 5 min
- NADPH oxidation ([2]; every brain region): oxidized rapidly
- toxin concentration relative to the initial concentration within 5 minutes ([3]; 110 mg/kg ICV, 8 month old mice): less than 50%
- tBuOOH concentration curve in 2 month old mice ([3]; compared with 8 month old mice): virtually identical curve
- concentration at 10 min ([3]; mouse, brain, icv or intrathecal, 110 mg/kg ICV, 8 month old mice): ~1000 µM
- half-life ([3]; mouse, icv or intrathecal, 110 mg/kg ICV, depending on the brain region): 4 to 20 min
- clearance of tBuOOH from the brain ([3]; striatum of 8 month old mice, 110 mg/kg ICV): very rapid clearance of tBuOOH from the brain in the initial period, followed by a slower clearance
- deaths [4]: Three out of six
- detoxification by glutathione peroxidase [5]: detoxified by glutathione peroxidase
- substrate for catalase [6]: not a substrate for catalase
- NAD levels after tBuOOH [7]: slowly and partially depleted
- effect on cortex DNA ([8]; 2 and 8 month old mice, high or low dose): not affected
- DNA damage in all other brain sections ([8]; 2 and 8 month old mice, high or low dose or both): some vulnerability
- Fraction of damaged DNA, Cerebellum [8, 12]: 0.65 ± 0.19 per gram of tissue
- Fraction of damaged DNA, Cortex [8, 12]: 0.53 ± 0.16 per gram of tissue
- Fraction of damaged DNA, Hippo [8, 12]: 0.40 ± 0.16 per gram of tissue
- Fraction of damaged DNA, Midbrain [8, 12]: 0.83 ± 0.58 per gram of tissue
- Fraction of damaged DNA, Striatum [8, 12]: 1.13 ± 0.49 per gram of tissue
- Fraction of damaged DNA, Thalamus [8, 12]: 1.29 ± 0.39 per gram of tissue
- Fraction of damaged DNA, Cerebellum [8, 13]: 0.93 ± 0.36 per gram of tissue
- Fraction of damaged DNA, Cortex [8, 13]: 0.47 ± 0.13 per gram of tissue
- Fraction of damaged DNA, Hippo [8, 13]: 0.31 ± 0.04 per gram of tissue
- Fraction of damaged DNA, Midbrain [8, 13]: 1.23 ± 0.12 per gram of tissue
- Fraction of damaged DNA, Striatum [8, 13]: 1.16 ± 0.31 per gram of tissue
- Fraction of damaged DNA, Thalamus [8, 13]: 1.44 ± 0.76 per gram of tissue
- Fraction of damaged DNA, Cortex [8, 14]: 0.73 ± 0.03 per gram of tissue
- Fraction of damaged DNA, Hippo [8, 14]: 0.50 ± 0.09 per gram of tissue
- Fraction of damaged DNA, Midbrain [8, 14]: 1.24 ± 0.13 per gram of tissue
- Fraction of damaged DNA, Striatum [8, 14]: 1.66 ± 0.33 per gram of tissue
- Fraction of damaged DNA, Thalamus [8, 14]: 1.25 ± 0.14 per gram of tissue
- Fraction of damaged DNA, Cerebellum ([8]; 2 month old mice, 21.9 mg/kg ICV, 48 hours, * p<0.05 vs control, 1 p<0.05 vs other age group): 1.29 ± 0.12 per gram of tissue
- significant damage in the hippocampus ([8]; 2 month old mice, 109.7 mg/kg): significant damage was seen 2 minutes and 20 minutes after injection
- Fraction of damaged DNA, Cerebellum [8, 15]: 1.17 ± 0.25 per gram of tissue
- Fraction of damaged DNA, Cortex [8, 15]: 0.84 ± 0.33 per gram of tissue
- Fraction of damaged DNA, Striatum [8, 15]: 2.00 ± 0.45 per gram of tissue
- Fraction of damaged DNA, Hippo [8, 16]: 0.66 ± 0.09 per gram of tissue
- Fraction of damaged DNA, Midbrain [8, 16]: 2.48 ± 1.02 per gram of tissue
- Fraction of damaged DNA, Thalamus [8, 16]: 2.66 ± 0.33 per gram of tissue
- Fraction of damaged DNA, Cerebellum [8, 17]: 0.88 ± 0.20 per gram of tissue
- Fraction of damaged DNA, Cortex [8, 17]: 0.82 ± 0.23 per gram of tissue
- Fraction of damaged DNA, Hippo [8, 17]: 0.41 ± 0.05 per gram of tissue
- Fraction of damaged DNA, Midbrain [8, 17]: 1.71 ± 0.77 per gram of tissue
- Fraction of damaged DNA, Striatum [8, 17]: 1.66 ± 0.52 per gram of tissue
- Fraction of damaged DNA, Thalamus ([8]; 2 month old mice, 109.7 mg/kg ICV, 5 min, * p<0.05 vs control): 2.85 ± 0.83 per gram of tissue
- Fraction of damaged DNA, Cortex [8, 18]: 0.76 ± 0.26 per gram of tissue
- Fraction of damaged DNA, Thalamus [8, 18]: 2.46 ± 0.65 per gram of tissue
- Fraction of damaged DNA, Cerebellum [8, 19]: 1.39 ± 0.51 per gram of tissue
- Fraction of damaged DNA, Hippo [8, 19]: 0.66 ± 0.14 per gram of tissue
- Fraction of damaged DNA, Midbrain [8, 19]: 3.09 ± 0.28 per gram of tissue
- Fraction of damaged DNA, Striatum [8, 19]: 2.56 ± 0.49 per gram of tissue
- hippocampus damage at 5 minutes compared with other age group ([8]; 2 month old vs 8 month old mice, 109.7 mg/kg): significantly lower
- significant damage in the cerebellum, early ([8]; 8 month old mice after 5 and 20 minutes, 2 month old mice after 20 minutes): Significant damage was observed after 5 minutes and 20 minutes, in the case of the 8 month old cerebellum and after 20 minutes in the 2 month old cerebellum
- Fraction of damaged DNA, Cerebellum [8, 20]: 0.69 ± 0.15 per gram of tissue
- Fraction of damaged DNA, Cortex [8, 20]: 0.61 ± 0.10 per gram of tissue
- Fraction of damaged DNA, Hippo [8, 20]: 0.46 ± 0.17 per gram of tissue
- Fraction of damaged DNA, Midbrain [8, 20]: 0.76 ± 0.24 per gram of tissue
- Fraction of damaged DNA, Striatum [8, 20]: 1.17 ± 0.33 per gram of tissue
- Fraction of damaged DNA, Thalamus [8, 20]: 1.08 ± 0.30 per gram of tissue
- Fraction of damaged DNA, Cerebellum [8, 21]: 0.67 ± 0.16 per gram of tissue
- Fraction of damaged DNA, Cortex [8, 21]: 0.65 ± 0.13 per gram of tissue
- Fraction of damaged DNA, Hippo [8, 21]: 0.46 ± 0.05 per gram of tissue
- Fraction of damaged DNA, Midbrain [8, 21]: 1.05 ± 0.35 per gram of tissue
- Fraction of damaged DNA, Striatum [8, 21]: 0.99 ± 0.06 per gram of tissue
- Fraction of damaged DNA, Thalamus [8, 21]: 0.75 ± 0.27 per gram of tissue
- Fraction of damaged DNA, Cortex [8, 22]: 0.69 ± 0.10 per gram of tissue
- Fraction of damaged DNA, Hippo [8, 22]: 0.55 ± 0.06 per gram of tissue
- Fraction of damaged DNA, Midbrain [8, 22]: 1.05 ± 0.13 per gram of tissue
- Fraction of damaged DNA, Striatum [8, 22]: 1.15 ± 0.12 per gram of tissue
- Fraction of damaged DNA, Thalamus [8, 22]: 1.65 ± 0.13 per gram of tissue
- Fraction of damaged DNA, Cerebellum ([8]; 8 month old mice, 21.9 mg/kg ICV, 48 hours, * p<0.05 vs control): 1.01 ± 0.11 per gram of tissue
- significant damage in the hippocampus ([8]; 8 month old mice, 109.7 mg/kg): significant damage was seen within 5 minutes
- Fraction of damaged DNA, Cerebellum [8, 23]: 0.80 ± 0.09 per gram of tissue
- Fraction of damaged DNA, Cortex [8, 23]: 0.87 ± 0.17 per gram of tissue
- Fraction of damaged DNA, Hippo [8, 23]: 0.69 ± 0.14 per gram of tissue
- Fraction of damaged DNA, Midbrain [8, 23]: 2.24 ± 0.66 per gram of tissue
- Fraction of damaged DNA, Striatum [8, 23]: 1.56 ± 0.27 per gram of tissue
- Fraction of damaged DNA, Thalamus ([8]; 8 month old mice, 109.7 mg/kg ICV, 2 min, * p<0.05 vs control): 2.29 ± 0.78 per gram of tissue
- Fraction of damaged DNA, Cortex [8, 24]: 0.67 ± 0.16 per gram of tissue
- Fraction of damaged DNA, Midbrain [8, 24]: 1.93 ± 0.26 per gram of tissue
- Fraction of damaged DNA, Striatum [8, 24]: 1.63 ± 0.47 per gram of tissue
- Fraction of damaged DNA, Thalamus [8, 24]: 1.86 ± 0.58 per gram of tissue
- Fraction of damaged DNA, Cerebellum ([8]; 8 month old mice, 109.7 mg/kg ICV, 5 min, * p<0.05 vs control): 1.15 ± 0.12 per gram of tissue
- Fraction of damaged DNA, Hippo ([8]; 8 month old mice, 109.7 mg/kg ICV, 5 min, * p<0.05 vs control, 1 p<0.05 vs other age group): 0.81 ± 0.20 per gram of tissue
- Fraction of damaged DNA, Cortex [8, 25]: 0.70 ± 0.19 per gram of tissue
- Fraction of damaged DNA, Hippo [8, 25]: 0.67 ± 0.15 per gram of tissue
- Fraction of damaged DNA, Cerebellum [8, 26]: 1.46 ± 0.36 per gram of tissue
- Fraction of damaged DNA, Midbrain [8, 26]: 2.98 ± 0.85 per gram of tissue
- Fraction of damaged DNA, Striatum [8, 26]: 2.38 ± 0.41 per gram of tissue
- Fraction of damaged DNA, Thalamus [8, 26]: 2.77 ± 0.30 per gram of tissue
- significant DNA damage in the thalamus ([8]; both age groups): significant DNA damage was found after 2 minutes
- significant damage in the midbrain ([8]; both age groups): significant damage was found after 20 minutes
- significant damage in the cerebellum at 48 hours ([8]; both age groups, 2 month old significantly greater than 8 month old): significant damage was observed in the cerebellum at the end of 48 hours
- significant DNA damage in the striatum ([8]; both age groups, high dose): significant DNA damage was found only after 20 minutes
- behavior of low dose animals ([9]; about 22 mg/kg ICV): move about freely and resemble mice treated ICV with 0.9% saline
- appearance of high dose mice and death ([9]; about 110 mg/kg ICV): frequently appeared inactive until death
- time of death after treatment ([9]; high dose (about 110 mg/kg ICV)): about 2 hours
- survival ([9]; low dose (about 22 mg/kg ICV)): ≥ 48 h
- apoptotic cells in the brain [10]: Apoptotic cells were found in many brain regions, but were most abundant in the thalamus and pons
- radicals produced by mixing DNA and tBuOOH [11]: produces HO. and other radicals

— patent publication US5736529A, “Use of NAD-related compounds in the treatment of neural trauma to inhibit neurodegeneration” (priority 1996, dated 1998)
